# Results from patent publication EP4289427A1, “DIHYDRO[1,8]NAPHTHYRIDIN-7-ONE AND PYRIDO[3,2-B][1,4]OXAZIN-3-ONE FOR USE IN TREATING CANCER, AND METASTASES IN PARTICULAR” (Anagenesis Biotechnologies, priority 2022, dated 2023).
# Columns and labels:
# [1] = system: MDA-MB-231 cells; experiment: Cytotoxicity assay (CellTiter-Glo 2.0) on MDA-MB-231 cells; assay type: cell-based, Human; details: incubation 3 days; for IC50: Homo sapiens, 72 h
# Outline: (§1)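 Cells in their own growth media were exposed to compounds for a line-specific incubation time. Remaining viability was read as ATP-dependent luminescence with CellTiter-Glo 2.0 after 10 min at room temperature. Relative IC50 was derived from the viability data.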
# [2] = system: MDA-MB-231 cells; experiment: Scratch (wound healing) assay, cell migration; assay type: cell-based, Human; details: 24 hours, Figure 1
# Description: Cell migration is involved in several pathological cancer processes such as tumor invasion, neoangiogenesis and metastasis. Scratch (or wound healing) assay is a method to study two-dimensional cell migration in vitro. It is based on the observation that cells growing in a monolayer migrate to reestablish cell contacts after a mechanical scratch wound.
# The MDA-MB-231 cells were seeded into a 24-well plate and grown to confluent density. A scrape was made in each well using a pipette tip. Then, the cells monolayers were incubated for 2 hours with 5 µg/ml mitomycin C to stop cell proliferation. The cells were treated with the compounds to be tested for 24 hours. The cells were stained using CellMask Green actin tracking stain (cat.no. A57246 from Fisher Scientific) at time zero and at endpoint. Pictures were acquired using a fluorescence microscope (IXM from Molecular Device). The scratch area was measured with the ImageJ software. The recovery of the scratch area was calculated as a percentage of the scratch area at time zero.
# [3] = system: RD cells; experiment: Cytotoxicity assay (CellTiter-Glo 2.0) on RD cells; assay type: cell-based, Human; details: for IC50: Homo sapiens
# Outline: as §1
# [4] = system: Src kinase family; experiment: Human phospho-kinase array in RD cells; assay type: cell-based; details: 1 hour at its IC50, Figure 4
# Description: Inhibition of kinases can be observed by quantifying both their phosphorylation levels and the phosphorylation level of downstream proteins in their pathways.
# RD cells were cultured in vitro and expanded for 4 days prior to the experiments (see example 3.1 and table 6a for details). The assay was performed using the human phospho-kinase array kit (cat.no. ARY003C from R&D Systems), according to the manufacturer's instructions. The RD cells were treated with compound #032 for 1 hour at its IC50 (previously defined) and lysed with lysis buffer supplemented with aprotinin, leupeptin and pepstatin. The total protein extract was titrated using a micro-BCA kit (cat. no. 23235 from Thermofisher Scientific). The array membranes were blocked and incubated overnight at 4 °C with 500 µg of total protein. Then, the detection antibodies were added for 2 hours followed by the HRP-conjugated Streptavidin solution for 30 minutes. The chemiluminescent signal was finally developed by incubating the membranes with the chemi-reagent mix and placed in the Fusion-FX acquisition system (Vilber Instruments). Data were analyzed using ImageJ software (Wayne Rasband; NIH).
# [5] = system: 4T1 cells; experiment: Colony forming (clonogenic) assay; assay type: cell-based, Mouse; details: 6 days of treatment, Figure 2
# Description: Cancer stem cells are characterized by their ability to undergo virtually unlimited divisions. Colony forming assay (or clonogenic assay) is an in vitro assay designed to assess capability of single cells to grow into large colonies through clonal expansion.
# 4T1 cells were seeded at a density of 500 cells per well of six-well plates in 4T1 medium. Compounds to be tested were added 24 hours after seeding. After 6 days of treatment, the cells were fixed in 4% PFA and stained with 1% aqueous solution of crystal violet. Pictures of the entire wells were acquired, and the area of the positives colonies was evaluated by ImageJ software (Wayne Rasband; NIH).
# [6] = system: EoL-1 cells; experiment: Cytotoxicity assay (CellTiter-Glo 2.0) on EoL-1 cells; assay type: cell-based, Human; details: incubation 1 day; for IC50: Homo sapiens, EOL1, 24 h
# Outline: as §1
# [7] = system: RD cells; experiment: Differentiation of RD cells into myotubes (alpha-actinin staining); assay type: cell-based, Human; details: 7 days, Figure 3
# Description: RD cells are cancer cells of muscle origin that arose from myogenic precursors that fail to complete muscle differentiation. One strategy to stop their progression is to differentiate them into myotubes.
# To allow differentiation, RD cells were seeded at a density of 3500 cells/well in a 384-well plate coated with collagen type I, in DMEM (4,5g/L glucose) with L-Gln (cat.no. 41965-039 from Gibco) supplemented with 5% of knockout serum replacement (cat.no. 10828-028 from Gibco), 1% PenStrep (Gibco), 1% MEM NEAA (Gibco) and 0.1 mM 2-mercaptoethanol (Gibco) (hereafter "K5 medium"). Compounds to be tested were then added onto the cells and incubated for 7 days at 37°C. On day 7, cells were fixed with 4% paraformaldehyde solution and immunostained for α-actinin (cat.no. EA-53 from Sigma, at 1/30000).
# [8] = system: 4T1 cells; experiment: Epithelial-mesenchymal transition marker expression by qRT-PCR; assay type: cell-based, Mouse; set-up: key: ↗: increased expression; ↘: decreased expression; =: unchanged expression levels; details: 24 hours, expression normalized against RPL13
# Source text: The epithelial-mesenchymal transition (hereafter "EMT") is a process by which epithelial cells lose their cell polarity and cell-cell adhesion while gaining migratory and invasive properties to become mesenchymal stem cells. EMT is commonly measured by quantifying both epithelial and mesenchymal marker's expression by quantitative reverse-transcription polymerase chain reaction (hereafter "qRT-PCR"). EMT inhibition is observed when epithelial markers are stable or increased while mesenchymal markers are decreased.
# 4T1 cells were treated with compounds to be tested or DMSO for 24 hours. 4T1 cells were then harvested directly in NucleoZol lysis buffer (cat. no. 740404.200 from Macherey-Nagel), according to the manufacturer's instructions. Total RNA was extracted using the NucleoSpin RNA set for NucleoZol (cat. no. 740406.50 from Macherey-Nagel). The quantity and purity of RNA was determined using a Quickdrop (Molecular Devices). RT-PCR was performed on 500 ng total RNA using iScript gDNA clear cDNA synthesis Kit (cat.no. 1725035 from Biorad). The qPCR was run on a QuantStudio 5 real time thermocycler (Applied Biosystems), with PowerUp SYBR Green Master Mix (cat.no. A25742 from Fisher Scientific) and the primers listed in Table 16.
# Expression data of EMT markers have been normalized against expression data of the housekeeping gene RPL13.
# [9] = system: HUVECs; experiment: Tube formation assay (anti-angiogenic activity); assay type: cell-based, human; details: incubation 16 to 18 hours; for IC50: Homo sapiens, HUVEC
# Outline: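 HUVECs plated at 5000 cells/well on reduced growth factor basement membrane matrix, then exposed to compounds for 16 to 18 hours at 37°C. Cells stained with calcein-AM; tube networks imaged by confocal fluorescence microscopy and quantified.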
# [10] = system: 4T1 cells; experiment: Cytotoxicity assay (CellTiter-Glo 2.0) on 4T1 cells; assay type: cell-based, Mouse; details: incubation 2 days; for IC50: Mus musculus, 48 h
# Outline: as §1
# [11] = system: HCT116; experiment: Cytotoxicity assay on KRAS mutated HCT116 cells; assay type: cell-based, Human; details: incubation 2 days
# Description: (§2) Cytotoxicity assays consist in treating cells with compounds and assessing remaining viability after a defined incubation time, depending on the cell line. CellTiter-Glo® 2.0 reagent allows viability measurement by quantification of ATP present, which is an indicator of metabolically active cells.
# (§3) The cancer cell lines were cultivated in their respective growth medium (see tables 6a and 6b). On day 0 of the cytotoxicity assay, the cells were harvested and seeded into a 384-well plate at a defined density in their respective growth medium (see tables 6a and 6b). Compounds to be tested were then added onto the cells and incubated for a defined duration (see tables 6a and 6b). Following incubation, CellTiter-Glo® 2.0 reagent (cat.no. G9241 from Promega) was added into the wells (vol/vol, according to the manufacturer's recommendations), plates were gently shaken and incubated for 10 minutes in the dark at room temperature. Bioluminescence was then measured with a multimode plate reader (Victor Nivo from Perkin Elmer), and cell viability and relative IC50 were determined. Table 6a: Cancer cell characteristics, culture and cytotoxic assay conditions
# [12] = system: RPMI 8226; experiment: Cytotoxicity assay on KRAS mutated RPMI 8226 cells; assay type: cell-based, Human; details: RPMI 8226, KRAS mutated, incubation 2 days
# Description: as §2, §3
# [13] = system: Mia PaCa-2; experiment: Cytotoxicity assay on KRAS mutated Mia PaCa-2 cells; assay type: cell-based, Human; details: Mia PaCa-2, KRAS mutated, incubation 2 days
# Description: as §2, §3
# [14] = system: SW480; experiment: Cytotoxicity assay on KRAS mutated SW480 cells; assay type: cell-based, Human; details: incubation 2 days
# Description: as §2, §3
# [15] = system: PSN1; experiment: Cytotoxicity assay on KRAS mutated PSN1 cells; assay type: cell-based, Human; details: incubation 2 days
# Description: as §2, §3
# [16] = system: HEC-1A; experiment: Cytotoxicity assay on KRAS mutated HEC-1A cells; assay type: cell-based, Human; details: incubation 2 days
# Description: as §2, §3
# [17] = system: A549; experiment: Cytotoxicity assay on KRAS mutated A549 cells; assay type: cell-based, Human; details: incubation 2 days
# Description: as §2, §3
SMILES,IC50 [1] [µM],Cytotoxicity [1],Cytotoxicity ([3]; 2 day-treatment),Cytotoxicity ([3]; 4 day-treatment),"IC50 ([3]; 48 h, 2 day-treatment) [µM]","IC50 ([3]; 96 h, 4 day-treatment) [µM]",IC50 [6] [µM],Cytotoxicity [6],Epithelial markers E-cadherin [8],Epithelial markers EpCAM [8],Mesenchymal markers Fibronectin [8],Mesenchymal markers Vimentin [8],IC50 [9] [µM],Angiogenesis inhibition [9],IC50 [10] [µM],Cytotoxicity [10],further results
"CSc1cc(Oc2ccnc3c2CCC(=O)N3)ccc1NC(=O)Nc1cc(C(C)(C)C)nn1-c1ccc(C)nc1 [Compound 032, 1-[5-tert-butyl-2-(6-methyl-3-pyridyl)pyrazol-3-yl]-3-[2-methylsulfanyl-4-[(7-oxo-6,8-dihydro-5H-1,8-naphthyridin-4-yl)oxy]phenyl]urea]",< 1,++ (50% ≤ cytotoxicity < 85%),++ (50% ≤ cytotoxicity < 85%),+++ (cytotoxicity ≥ 85%),1 to 5,1 to 5,0.001 to 0.01,+++ (cytotoxicity ≥ 85%),↗,↗,=,↘,< 0.1,+++ (angiogenesis inhibition ≥ 80%),< 1,+++ (cytotoxicity ≥ 85%),migration in the scratch assay [2]: inhibition of their migration; phosphorylation of members of the Src kinase family and their downstream proteins [4]: decreased phosphorylation; colony growth [5]: inhibition of colony growth; differentiation into myotubes [7]: dose-dependent differentiation into myotubes
"CSc1cc(Oc2ccnc3c2OCC(=O)N3)ccc1NC(=O)Nc1cc(C(C)(C)C)no1 [Compound 020, 1-(3-tert-butylisoxazol-5-yl)-3-[2-methylsulfanyl-4-[(3-oxo-4H-pyrido[3,2-b][1,4]oxazin-8-yl)oxy]phenyl]urea]",< 1,++ (50% ≤ cytotoxicity < 85%),++ (50% ≤ cytotoxicity < 85%),++ (50% ≤ cytotoxicity < 85%),1 to 5,< 1,< 0.001,+++ (cytotoxicity ≥ 85%),↗,=,↘,↘,< 0.1,+++ (angiogenesis inhibition ≥ 80%),1 to 5,+++ (cytotoxicity ≥ 85%),"IC50 ([11]; Homo sapiens, HCT-116, 48 h): < 1 µM; Cytotoxicity [11]: +++ (cytotoxicity ≥ 85%); IC50 ([12]; Homo sapiens, 48 h): < 1 µM; Cytotoxicity [12]: ++ (50% ≤ cytotoxicity < 85%); IC50 ([13]; Homo sapiens, 48 h): < 1 µM; Cytotoxicity [13]: +++ (cytotoxicity ≥ 85%); IC50 ([14]; Homo sapiens, 48 h): < 1 µM; Cytotoxicity [14]: ++ (50% ≤ cytotoxicity < 85%); IC50 ([15]; Homo sapiens, 48 h): < 1 µM; Cytotoxicity [15]: +++ (cytotoxicity ≥ 85%); IC50 ([16]; Homo sapiens, 48 h): < 1 µM; Cytotoxicity [16]: ++ (50% ≤ cytotoxicity < 85%); IC50 ([17]; Homo sapiens, 48 h): < 1 µM; Cytotoxicity [17]: ++ (50% ≤ cytotoxicity < 85%)"
